The results in this text go back to patent publication US20250082659A1, “MANNO-OLIGOSACCHARIDE COMPOSITIONS FOR PATHOGEN CONTROL” (priority 2022, published 2025).

The experiment concerns Streptococcus mutans. Briefly: Inhibition of Streptococcus mutans by penicillin with or without MOS (Example 12). The settings on record: BHI media.

On to penicillin, for which the “inhibition of S. mutans growth” value was 10%.
